One data set concerns the target BCL-XL (Homo sapiens (Human), UniProt Q07817). The data set is described as follows: Protein-protein interaction assay BCL-XL/Bad BH3 peptide (BCL-XL assay, TR-FRET). It is filed as binding. The conditions noted are these: read-out: BCL-XL Assay IC50 (median). An outline of the steps: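 TR-FRET competition: 1 nM His-tagged human BCL-XL (1-212) versus 1 nM biotin-PEG Bad BH3 peptide tracer, buffer 50 mM Tris pH 7, NaCl, KF, DTT. Compound preincubated with protein 10 min at 22 °C; read after 1 h at 22 °C plus overnight at 4 °C. IC50 by 4-parameter regression of normalized ratios.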

For data set [1], the system named is SUDHL5 cells. The data set is described as follows: Induction of cytotoxicity in SUDHL5 cells (Assay 6). The format is cell-based. Conditions: 5 h, CellTiter-Glo, read-out: Cytotox SUDHL5 IC50 (median). In a few lines: (§1)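 SUDHL5 and SUDHL10 cells plated and held overnight at 37° C, then incubated 5 h at 37° C with compound. Viability measured by CellTiter-Glo luminescence after 15 min shaking at room temperature. Cell-free medium wells served as control.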

For the next data set, the system named is SUDHL10 cells. The data set is described as follows: Induction of cytotoxicity in SUDHL10 cells (Assay 6). The format is cell-based. Conditions: 5 h, CellTiter-Glo, read-out: Cytotox SUDHL10 IC50 (median). An outline of the steps:
as §1
For orientation: In ATP-based viability assays light output follows the ATP content of the culture.

Data set [2] deals with SUDHL5 cells. Description: Antiproliferation assay SUDHL5 (Assay 7). The format is cell-based. An outline of the steps: (§2)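 Luminescent viability signal (CellTiter-Glo) after 72 h of treatment served as read-out. IC50 values were derived with day 0 luminescence as CI and DMSO wells as C0.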
Another data set deals with HMC-1-8 cells. Description: Antiproliferation assay HMC-1-8 (Assay 7). It is filed as cell-based. An outline of the steps:
as §2

[3] abbreviates: Homo sapiens, SU-DHL-5, 72 h, 72 h, CellTiter-Glo; read-out: Antiproli SUDHL5 IC50 (median).
Setting [4] is: 72 h, CellTiter-Glo; read-out: Antiproli SUDHL5 IC50 (median).
The mark [5] stands for this setting: 72 h, CellTiter-Glo; read-out: Antiproli HMC-1-8 IC50 median.

Counter-ions that a name gives are not always drawn. Like-named read-outs stand apart in the source and are kept apart here.

Sequence of BCL-XL (Q07817 1-212): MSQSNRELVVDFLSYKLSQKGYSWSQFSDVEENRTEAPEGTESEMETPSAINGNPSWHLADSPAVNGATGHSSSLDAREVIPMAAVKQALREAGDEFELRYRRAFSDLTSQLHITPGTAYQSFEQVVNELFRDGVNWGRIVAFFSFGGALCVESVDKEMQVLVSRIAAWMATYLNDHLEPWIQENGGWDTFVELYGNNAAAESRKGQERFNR

`CCc1c2c(nn1C)C(CC(C)(C)O)OCCCCn1c(C(=O)O)c(CCCOc3cccc4cc(F)ccc34)c3ccc(Cl)c-2c31` (racemic) [Example 52, (rac)-4-chloro-3-ethyl-7-{3-[(6-fluoronaphthalen-1-yl)oxy]propyl}-(15-rac)-(2-hydroxy-2-methylpropyl)-2-methyl-2,10,11,12,13,15-hexahydropyrazolo[4′,3′:9,10][1,6]oxazacycloundecino[8,7,6-hi]indole-8-carboxylic Acid]: the IC50 (as a rule, the concentration that inhibits the measured activity by half) amounted to 14.7 µM on BCL-XL; 0.38 µM in the data set on SUDHL5 cells [1] (Homo sapiens, SU-DHL-5, 5 h); 0.28 µM with SUDHL10 cells (Homo sapiens, SU-DHL10, 5 h); 0.4 µM with SUDHL5 cells [2] (setting [3]); 3.19 µM with HMC-1-8 cells (72 h, CellTiter-Glo, read-out: Antiproli HMC-1-8 IC50 median).
`CCc1c2c(nn1C)C(CCN1CCC(F)(F)C1)OCCCCn1c(C(=O)O)c(CCCOc3cccc4cc(F)ccc34)c3ccc(Cl)c-2c31` (single isomer, unassigned; enantiomer 2) [Example 57, 4-chloro-15-[2-(3,3-difluoropyrrolidin-1-yl)ethyl]-3-ethyl-7-{3-[(6-fluoronaphthalen-1-yl)oxy]propyl}-2-methyl-2,10,11,12,13,15-hexahydropyrazolo[4′,3′:9,10][1,6]oxazacycloundecino[8,7,6-hi]indole-8-carboxylic Acid N-ethylethanamine Salt (Enantiomer 2)]: the IC50 was more than 20 µM at BCL-XL; 6.8 µM in the data set with SUDHL5 cells [1]; 10 µM in the data set on SUDHL10 cells; 8.7 µM in the data set on SUDHL5 cells [2] (read-out: Antiproli SUDHL5 IC50 (median); 72 h, CellTiter-Glo); 13.6 µM in the data set with HMC-1-8 cells (read-out: Antiproli HMC-1-8 IC50 median; 72 h, CellTiter-Glo).
Regarding `Cc1c2c(nn1C)C(CCO)OCCCCn1c(C(=O)O)c(CCCOc3cccc4ccccc34)c3ccc(Cl)c-2c31` (single isomer, unassigned; enantiomer 2) [Example 32, (−)-4-chloro-15-(2-hydroxyethyl)-2,3-dimethyl-7-{3-[(naphthalen-1-yl)oxy]propyl}-2,10,11,12,13,15-hexahydropyrazolo[4′,3′:9,10][1,6]oxazacycloundecino[8,7,6-hi]indole-8-carboxylic Acid (Enantiomer 2)], the IC50 was more than 20 µM on BCL-XL; more than 33 µM in the data set with SUDHL5 cells [1]; more than 33 µM in the data set on SUDHL10 cells; 26 µM with SUDHL5 cells [2] (setting [4]); more than 33 µM with HMC-1-8 cells (setting [5]).
Take `CCc1c2c(nn1C)C(CCO)OCCCCn1c(C(=O)O)c(CCCOc3cccc4cc(F)ccc34)c3ccc(Cl)c-2c31` (single isomer, unassigned; enantiomer 1) [Example 45, (+)-4-chloro-3-ethyl-7-{3-[(6-fluoronaphthalen-1-yl)oxy]propyl}-15-(2-hydroxyethyl)-2-methyl-2,10,11,12,13,15-hexahydropyrazolo[4′,3′:9,10][1,6]oxazacycloundecino[8,7,6-hi]indole-8-carboxylic Acid (Enantiomer 1)]: the IC50 at BCL-XL is more than 20 µM; in the data set on SUDHL5 cells [1], 0.076 µM; in the data set with SUDHL10 cells, 0.073 µM; with SUDHL5 cells [2] (setting [3]) it was 0.095 µM; in the data set with HMC-1-8 cells (setting [5]), 2.14 µM.
In the case of `CCc1c2c(nn1C)C(CCN1CCOCC1)OCCCCn1c(C(=O)O)c(CCCOc3cccc4cc(F)ccc34)c3ccc(F)c-2c31` (single isomer, unassigned; enantiomer 2) [Example 51, (−)-3-ethyl-4-fluoro-7-{3-[(6-fluoronaphthalen-1-yl)oxy]propyl}-2-methyl-15-[2-(morpholin-4-yl)ethyl]-2,10,11,12,13,15-hexahydropyrazolo[4′,3′:9,10][1,6]oxazacycloundecino[8,7,6-hi]indole-8-carboxylic Acid (Enantiomer 2)], the IC50 at BCL-XL was more than 20 µM; with SUDHL5 cells [1], 3.4 µM; with SUDHL10 cells, 3.7 µM; in the data set with SUDHL5 cells [2] (setting [4]), 2.3 µM; in the data set with HMC-1-8 cells (setting [5]), 22 µM.
